# Measured values taken from patent publication US11771086B2, “Pest control composition including novel iminopyridine derivative” (priority 2012, dated 2023).
# Legend:
# [1] = test system: Plutella xylostella; test: Reference Test Example 1 Pest control test of Plutella xylostella (foliar treatment, single agent); format: in vivo
# Excerpt: (§1) After an air drying process, second instar larvae were released thereto. […] Test in duplicate.
# [2] = test system: Spodoptera litura; test: Reference Test Example 2 Pest control test of Spodoptera litura (foliar treatment, single agent); format: in vivo; details: 72 h
# Excerpt: After an air drying process, third instar larvae were released thereto. […] Test in duplicate.
# [3] = test system: Aphis gossypii; test: Reference Test Example 3 Pest control test of Aphis gossypii (foliar treatment, single agent); format: in vivo
# Procedure: After an air drying process, first instar larvae were released thereto. Thereafter, the larvae were left to stand in a thermostatic chamber (16 hours of light period-8 hours of dark period) at 25° C. […] Test in duplicate. Mortality (%)={number of dead larvae/(number of survived larvae+number of dead larvae)}×100
# [4] = test system: Laodelphax striatella; test: Reference Test Example 4 Pest control test of Laodelphax striatella (foliar treatment, single agent); format: in vivo; details: Laodelphax striatellus, 72 h
# Excerpt: as §1
# [5] = test system: Nilaparvata lugens; test: Reference Test Example 5 Pest control test of Nilaparvata lugens (foliar treatment, single agent); format: in vivo; details: 144 h
# Excerpt: as §1
# [6] = test system: Sogatella furcifera; test: Reference Test Example 6 Pest control test of Sogatella furcifera (foliar treatment, single agent); format: in vivo; details: 96 h
# Excerpt: as §1
# [7] = test system: Frankliniella occidentalis; test: Reference Test Example 9 Pest control test of Frankliniella occidentalis (foliar treatment, single agent); format: in vivo; details: 72 h
# Procedure: After an air drying process, first instar larvae were released to the leaf disk. Thereafter, the larvae were left to stand in a thermostatic chamber (16 hours of light period-8 hours of dark period) at 25° C. […] Test in duplicate. Mortality of larvae (%)={number of dead larvae/(number of survived larvae+number of dead larvae)}×100
# [8] = test system: Trigonotylus caelestialium; test: Reference Test Example 10 Pest control test of Trigonotylus caelestialium (dipping treatment); format: in vivo; details: 72 h
# Procedure: After an air drying process, the wheat seedling leaves and stems were placed into a glass tube, and two second instar larvae of Trigonotylus coelestialium were released to the same glass tube. After the larvae were released, the tube was lidded to leave the larvae to stand in a thermostatic chamber at 25° C. In order to supply water to the wheat during the test, water was given to the wheat from the bottom of the glass tube. […] Test in triplicate.
# [9] = test system: Laodelphax striatella; test: Reference Test Example 18 Pest control test of Laodelphax striatella (wheat seedling root treatment); format: in vivo; details: wheat seedling roots treated; four days after release; 20 μg/seedling
# Procedure: The drug was absorbed from the roots for 72 hours, and then ten second instar larvae of Laodelphax striatella were each released thereto. […] The test was performed in duplicate.
# [10] = test system: Nilaparvata lugens susceptible species (highly susceptible to imidacloprid); test: Reference Test Example 19 Pest control test of Nilaparvata lugens, imidacloprid susceptible species (soil drench); format: in vivo; details: for Insecticidal effects against Nilaparvata lugens (death rate %), Susceptible population: soil drench, six days
# Procedure: (§2) Three days after the treatment, ten second instar larvae of Nilaparvata lugens, which had been collected outdoors and proliferated indoors, were each released to the rice seedling. […] Test in duplicate.
# (§3) Furthermore, for comparison, the test against a species of Nilaparvata lugens which is highly susceptible to imidacloprid was performed by the same method as described above, and the results thereof are shown in Table 45. […] Meanwhile, the death rates of imidacloprid at 0.05 mg/seedling were (susceptible species) 100%, (resistant population I) 38% and (resistant population II) 69%, and the insecticidal effect thereof was also low even at a high dose. From the above results, it became obvious that Compound P212 and Compound 1-20 have high insecticidal effects even against Nilaparvata lugens resistance against imidacloprid.
# (§4) Further, for the origin of test pests, bugs collected outdoors from the Kumamoto prefecture (I) in 2007 and from the Fukuoka prefecture (II) in 2005 as resistant population of Nilaparvata lugens, and bugs collected from the Kagoshima prefecture and then successively reared indoors for a long time as the imidacloprid susceptible population of Nilaparvata lugens were used.
# [11] = test system: Nilaparvata lugens resistant population I; test: Reference Test Example 19 Pest control test of Nilaparvata lugens, resistant population I (soil drench); format: in vivo; details: for Insecticidal effects against Nilaparvata lugens (death rate %), Resistant population I: soil drench, six days
# Procedure: as §2, §3, §4
# [12] = test system: Nilaparvata lugens resistant population II; test: Reference Test Example 19 Pest control test of Nilaparvata lugens, resistant population II (soil drench); format: in vivo; details: for Insecticidal effects against Nilaparvata lugens (death rate %), Resistant population II: soil drench, six days
# Procedure: as §2, §3, §4
# [13] = test system: Laodelphax striatella; test: whole plant or invertebrate; details: Laodelphax striatellus, soil, 72 h, soil irrigation; for mortality at 0.005 mg/seedling: read-out: Mortality of single agent against Laodelphax striatella, single agent 0.005 mg/Seedling
# Procedure: (§5) After the rice seedling was left to stand for 3 days, second instar larvae were released thereto. Thereafter, the larvae were left to stand in a thermostatic chamber (16 hours of light period-8 hours of dark period) at 25° C. […] The test was performed in duplicate. Mortality of larvae (%)={number of dead larvae/(number of survived larvae+number of dead larvae)}×100
# B: 100−(mortality of larvae or adults when treated only with each of imidacloprid, fipronil, chlorantraniliprole, spinosad, clothianidin, dinotefuran, sulfoxaflor, pymetrozine, thiamethoxam, flupyradifurone and cycloxaprid))
# (§6) Method for Judging Synergistic Effects
# When the mortality against Laodelphax striatella in the case of a mixture with another agent exceeded the theoretical value by the Colby's equation, a synergistic effect was judged to be present.
# [14] = test system: Laodelphax striatella; test: whole plant or invertebrate; format: in vivo
# Procedure: (§7) After an air drying process, second instar larvae were released thereto. […] The test was performed in duplicate.
# as §6
# [15] = test system: Aphis gossypii; test: whole plant or invertebrate; format: in vivo; details: Aphis gossypii
# Procedure: The test was performed in duplicate.
# as §6
# [16] = test system: Plutella xylostella; test: whole plant or invertebrate; format: in vivo
# Procedure: as §7, §6
# [17] = test system: Chilo suppressalis; format: in vivo; details: single agent 0.0005 mg/seedling; soil irrigation; six days after release
# Procedure: After standing for 3 days, second instar larvae were released thereto. […] The test was performed in duplicate.
# as §6
# [18] = test system: Naranga aenescens; format: in vivo; details: single agent 0.01 mg/seedling; soil irrigation; five days after release
# Procedure: After standing for 3 days, first instar larvae were released thereto. […] The test was performed in duplicate.
# as §6
# [19] = test system: Callosobruchus chinensis; format: in vivo; details: single agent 0.2 ng/head; topical; one day
# Procedure: A compound of Formula (I) and the insecticide indicated below, prepared in predetermined concentrations using acetone, were separately topically applied to the back of the same adult Callosobruchus chinensis. […] The test was performed in duplicate. Insect mortality (%)={number of dead insects/(number of survived insects+number of dead insects)}×100
# (A: 100−(insect mortality for treatment with only Compound P212)
# B: 100−(insect mortality for treatment with only the insecticide fipronil or imidacloprid))
# as §6
# [20] = format: in vivo; details: single agent 0.125 mg/seedling; soil irrigation; seven days after inoculation
# [21] = test system: Frankliniella occidentalis; test: whole plant or invertebrate
# Procedure: as §5, with “an air drying process, first” for “the rice seedling was left to stand for 3 days, second”
# (A: 100−(mortality of larvae or adults when treated only with Compound P212)
# B: 100−(mortality of larvae or adults when treated with only the insecticide imidacloprid, dinotefuran, or acetamiprid))
# as §6
# When the mortality against Frankliniella occidentalis in the case of a mixture with another agent exceeded the theoretical value given by Colby's equation, a synergistic effect was judged to be present.
# [22] = test system: Haemaphysalis longicornis; test: whole plant or invertebrate; format: in vivo; details: Haemaphysalis longicornis, topical, 120 h, read-out: Mortality of single agent against Haemaphysalis longicornis, single agent 1.9 μg; capsule on mouse; five days; mortality and agonal rate
# Procedure: A capsule with a diameter of 2 cm and a height of 2 cm was attached to the dorsal surface of a mouse. A compound of Formula (I), ivermectin, moxidectin, permethrin, amitraz, fipronil, spinetram and the mixture of the compound of Formula (I) and each insecticide were dissolved in ethanol at the concentrations given in […], and each of these was dripped onto the surface of a mouse body within a capsule. After thorough drying, eight Haemaphysalis longicornis nymphs were released and the top of the capsule was sealed with a lid. The mouse was kept in a cage at 25° C. using a 12-hour light period and a 12-hour dark period. Five days after the release, the capsule was removed and the number of surviving and dead nymphs and the number of engorged individuals were counted and the insect mortality and agonal rate was calculated by the following equation. Insect mortality and agonal rate (%)={number of dead and agonal insects/(number of survived insects+number of dead and agonal insects)}×100
smiles,measurement,setting,value
"FC(F)(F)C(=S)/N=c1\ccccn1Cc1ccc(Cl)nc1 [Compound 1-20, N-[1-((6-chloropyridin-3-yl)methyl)pyridin-2(1H)-ylidene]-2,2,2-trifluoroethanethioamide]",mortality at 100 ppm,"[1]; Plutella xylostella, foliar, 72 h",≥ 80%
same,"Plutella xylostella (Reference Test Example 1), mortality of larvae","[1]; foliar treatment, single agent",100%
same,mortality at 500 ppm,[2],≥ 80%
same,mortality at 100 ppm,"[3]; Aphis gossypii, foliar, 72 h",≥ 80%
same,"Aphis gossypii (Reference Test Example 3), mortality of larvae","[3]; foliar treatment, single agent",100%
same,mortality at 100 ppm,[4],≥ 80%
same,mortality at 100 ppm,[5],≥ 80%
same,mortality at 100 ppm,[6],≥ 80%
same,mortality at 500 ppm,[7],≥ 80%
same,mortality at 50 ppm,[8],≥ 80%
same,"Laodelphax striatella (Reference Test Example 18), mortality of larvae",[9],100%
same,death rates of larvae,"[10]; susceptible species, 0.005 mg/seedling, six days after the release",100%
same,"Insecticidal effects against Nilaparvata lugens (death rate %), Susceptible population",[10]; throughput 0.005 mg/seedling,100%
same,"Insecticidal effects against Nilaparvata lugens (death rate %), Susceptible population",[10]; throughput 0.01 mg/seedling,95%
same,death rates of larvae,"[11]; resistant population I, 0.005 mg/seedling, six days after the release",77%
same,"Insecticidal effects against Nilaparvata lugens (death rate %), Resistant population I",[11]; throughput 0.005 mg/seedling,77%
same,"Insecticidal effects against Nilaparvata lugens (death rate %), Resistant population I",[11]; throughput 0.01 mg/seedling,100%
same,death rates of larvae,"[12]; resistant population II, 0.005 mg/seedling, six days after the release",85%
same,"Insecticidal effects against Nilaparvata lugens (death rate %), Resistant population II",[12]; throughput 0.005 mg/seedling,85%
same,"Insecticidal effects against Nilaparvata lugens (death rate %), Resistant population II",[12]; throughput 0.01 mg/seedling,100%
same,mortality at 0.005 mg/seedling,[13],12%
same,Theoretical value by Colby's equation,"[14]; Laodelphax striatella foliar, single agent 0.625 ppm (other component 0)",90%
same,mortality at 0.625 ppm,"[14]; Laodelphax striatellus, foliar, 72 h, read-out: Mortality of single agent against Laodelphax striatella",90%
same,mortality at 0.625 ppm,"[15]; foliar, 72 h, read-out: Mortality of single agent against Aphis gossypii",19%
same,Theoretical value by Colby's equation,[15]; single agent 0.625 ppm (other component 0),19%
N#Cc1nn(-c2c(Cl)cc(C(F)(F)F)cc2Cl)c(N)c1[S+]([O-])C(F)(F)F (centres unmarked) [Fipronil],mortality at 0.001 mg/seedling,"[13]; read-out: Mortality of single agent against Laodelphax striatella, single agent 0.001 mg/Seedling",0%
same,mortality at 0.005 mg/seedling,[13],26%
same,Theoretical value by Colby's equation,[16]; 0.04 ppm,50%
same,mortality at 0.04 ppm,"[16]; Plutella xylostella, foliar, 72 h, read-out: Mortality of single agent against Plutella xylostella, single agent 0.04 ppm, cabbage leaf disk spray, three days",50%
same,Mortality of single agent against Chilo suppressalis,[17],40%
same,Mortality of single agent against Naranga aenescens,[18],20%
same,Mortality of single agent against Callosobruchus chinensis,[19],0%
C=CCOC1=NS(=O)(=O)c2ccccc21 [Probenazole],mortality at 0.5 mg/seedling,"[13]; read-out: Mortality of single agent against Laodelphax striatella, single agent 0.5 mg/Seedling",9%
same,"Preventive value (rice blast, number of lesions)",[20],96.7
"O=[N+]([O-])NC1=NCCN1Cc1ccc(Cl)nc1 [imidacloprid, reference compound]",death rates,"[10]; susceptible species, 0.05 mg/seedling, six days after the release",100%
same,"Insecticidal effects against Nilaparvata lugens (death rate %), Susceptible population",[10]; throughput 0.01 mg/seedling,100%
same,"Insecticidal effects against Nilaparvata lugens (death rate %), Susceptible population",[10]; throughput 0.05 mg/seedling,100%
same,death rates,"[11]; resistant population I, 0.05 mg/seedling, six days after the release",38%
same,"Insecticidal effects against Nilaparvata lugens (death rate %), Resistant population I",[11]; throughput 0.05 mg/seedling,38%
same,death rates,"[12]; resistant population II, 0.05 mg/seedling, six days after the release",69%
same,"Insecticidal effects against Nilaparvata lugens (death rate %), Resistant population II",[12]; throughput 0.01 mg/seedling,39%
same,"Insecticidal effects against Nilaparvata lugens (death rate %), Resistant population II",[12]; throughput 0.05 mg/seedling,69%
same,mortality at 0.005 mg/seedling,[13],0%
same,Theoretical value by Colby's equation,[21]; 20 ppm,69%
same,mortality at 20 ppm,"[21]; Frankliniella occidentalis, foliar, 72 h, read-out: Mortality of single agent against Frankliniella occidentalis",69%
same,Mortality of single agent against Callosobruchus chinensis,[19],40%
same,mortality at 0.0019 mg,[22],7.7%
